Measurements from PubChem BioAssay (NCI).
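How tested: cells in 96-well plates exposed to compound for 48 hours at five concentrations. TGI is the concentration that stops growth completely.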

Tests used:
Assay in all cases: NCI tumour cell line growth inhibition, 48 h
A498 renal = test system: A498 renal
A549 NSCLC = test system: A549 NSCLC
CCRF-CEM leukemia = test system: CCRF-CEM leukemia
COLO 205 colon = test system: COLO 205 colon
DLD-1 colon = test system: DLD-1 colon
DMS 114 small cell lung = test system: DMS 114 small cell lung
DMS 273 small cell lung = test system: DMS 273 small cell lung
EKVX NSCLC = test system: EKVX NSCLC
HCC-2998 colon = test system: HCC-2998 colon
HCT-116 colon = test system: HCT-116 colon
HCT-15 colon = test system: HCT-15 colon
HL-60(TB) leukemia = test system: HL-60(TB) leukemia
HOP-18 NSCLC = test system: HOP-18 NSCLC
HOP-62 NSCLC = test system: HOP-62 NSCLC
HOP-92 NSCLC = test system: HOP-92 NSCLC
HT29 colon = test system: HT29 colon
IGROV1 ovarian = test system: IGROV1 ovarian
K-562 leukemia = test system: K-562 leukemia
KM12 colon = test system: KM12 colon
KM20L2 colon = test system: KM20L2 colon
LOX IMVI melanoma = test system: LOX IMVI melanoma
M19-MEL melanoma = test system: M19-MEL melanoma
MALME-3M melanoma = test system: MALME-3M melanoma
MCF7 breast = test system: MCF7 breast
MOLT-4 leukemia = test system: MOLT-4 leukemia
NCI-H226 lung = test system: NCI-H226 lung
NCI-H23 lung = test system: NCI-H23 lung
NCI-H460 lung = test system: NCI-H460 lung
NCI-H522 lung = test system: NCI-H522 lung
NCI/ADR-RES ovarian = test system: NCI/ADR-RES ovarian
OVCAR-3 ovarian = test system: OVCAR-3 ovarian
OVCAR-4 ovarian = test system: OVCAR-4 ovarian
OVCAR-5 ovarian = test system: OVCAR-5 ovarian
OVCAR-8 ovarian = test system: OVCAR-8 ovarian
P388 leukemia = test system: P388 leukemia
P388/ADR leukemia = test system: P388/ADR leukemia
RPMI-8226 leukemia = test system: RPMI-8226 leukemia
RXF 393 renal = test system: RXF 393 renal
SF-268 CNS = test system: SF-268 CNS
SF-295 CNS = test system: SF-295 CNS
SF-539 CNS = test system: SF-539 CNS
SK-MEL-2 melanoma = test system: SK-MEL-2 melanoma
SK-MEL-28 melanoma = test system: SK-MEL-28 melanoma
SK-MEL-5 melanoma = test system: SK-MEL-5 melanoma
SK-OV-3 ovarian = test system: SK-OV-3 ovarian
SN12C renal = test system: SN12C renal
SN12K1 renal = test system: SN12K1 renal
SNB-19 CNS = test system: SNB-19 CNS
SNB-75 CNS = test system: SNB-75 CNS
SNB-78 CNS = test system: SNB-78 CNS
SW-620 colon = test system: SW-620 colon
U251 CNS = test system: U251 CNS
UACC-257 melanoma = test system: UACC-257 melanoma
UACC-62 melanoma = test system: UACC-62 melanoma
UO-31 renal = test system: UO-31 renal
XF 498 CNS = test system: XF 498 CNS

Measured: TGI

Nc1ccc(N=Nc2ccc(/C=C/c3ccc(N=Nc4ccc(N)c5ccc(S(=O)(=O)O)cc45)cc3S(=O)(=O)O)c(S(=O)(=O)O)c2)c2cc(S(=O)(=O)O)ccc12
> 100 µM: A498 renal | A549 NSCLC | CCRF-CEM leukemia | COLO 205 colon | DLD-1 colon | DMS 114 small cell lung | DMS 273 small cell lung | EKVX NSCLC | HCC-2998 colon | HCT-116 colon | HCT-15 colon | HL-60(TB) leukemia | HOP-18 NSCLC | HOP-62 NSCLC | HOP-92 NSCLC | HT29 colon | IGROV1 ovarian | K-562 leukemia | KM12 colon | KM20L2 colon | LOX IMVI melanoma | M19-MEL melanoma | MALME-3M melanoma | MCF7 breast | MOLT-4 leukemia | NCI-H226 lung | NCI-H23 lung | NCI-H460 lung | NCI-H522 lung | NCI/ADR-RES ovarian | OVCAR-3 ovarian | OVCAR-4 ovarian | OVCAR-5 ovarian | OVCAR-8 ovarian | P388 leukemia | P388/ADR leukemia | RPMI-8226 leukemia | RXF 393 renal | SF-268 CNS | SF-295 CNS | SF-539 CNS | SK-MEL-2 melanoma | SK-MEL-28 melanoma | SK-MEL-5 melanoma | SK-OV-3 ovarian | SN12C renal | SN12K1 renal | SNB-19 CNS | SNB-75 CNS | SNB-78 CNS | SW-620 colon | U251 CNS | UACC-257 melanoma | UACC-62 melanoma | UO-31 renal | XF 498 CNS
